Measured values reported in ChEMBL document CHEMBL1133025, “The utilization of a unified pharmacophore query in the discovery of new antagonists of the adenosine receptor family” (Bioorg Med Chem Lett, 2000).

Key:
[1] = molecular target: T1, Adenosine receptor A3 (Homo sapiens) (UniProt P0DMS8); assay: In vitro inhibitory activity against human Adenosine A3 receptor at 10e-5 M
T1 sequence (whole entry): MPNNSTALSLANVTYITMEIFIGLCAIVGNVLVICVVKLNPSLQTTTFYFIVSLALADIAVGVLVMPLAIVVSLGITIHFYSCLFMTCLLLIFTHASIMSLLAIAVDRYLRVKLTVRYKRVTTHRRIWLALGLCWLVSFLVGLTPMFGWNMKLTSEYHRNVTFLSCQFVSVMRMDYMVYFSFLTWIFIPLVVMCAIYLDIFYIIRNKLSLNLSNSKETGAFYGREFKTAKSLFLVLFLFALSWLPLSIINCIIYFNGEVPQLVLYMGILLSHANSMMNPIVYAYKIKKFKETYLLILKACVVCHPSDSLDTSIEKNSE

[2] = molecular target: T2, Adenosine receptor A3 (Homo sapiens, UniProt P0DMS8); assay: In vitro binding affinity against human Adenosine A3 receptor
T2 sequence (P0DMS8 whole entry): T1 sequence (whole entry)

[3] = molecular target: T2, Adenosine receptor A3; assay: Inhibition of [35S]GTP-gamma-S, binding stimulated by 5 uM 5''-N-ethyluronamidoadenosine (NECA) in membranes of HEK293 cells expressing human Adenosine A3 receptor; type: functional, cell membranes
[4] = molecular target: T2, Adenosine receptor A3; assay: Inhibition of [35S]GTP-gamma-S, binding stimulated by 20 uM 5''-N-ethyluronamidoadenosine (NECA) in membranes of HEK293 cells expressing human Adenosine A3 receptor; type: functional, cell membranes

SMILES | inhibition [1] [%] | Ki [2] [nM] | also measured
COc1ccc(N(CC(=O)Nc2cccc(Cl)c2C)S(=O)(=O)c2ccccc2)cc1 | 65 | – | –
CCOC(=O)CNC(c1ccccc1)c1cc(Br)ccc1NC(=O)c1ccccc1 (stereo unspecified) | – | 3100 | IC50 [3]: 407 nM
CCSc1nnc2c(n1)OC(c1ccc(-c3ccc(Cl)cc3)o1)Nc1ccccc1-2 (stereo unspecified) | 60 | – | –
COc1ccc(-c2csc(NC3OC(=O)c4c3ccc(OC)c4OC)n2)cc1 (stereo unspecified) | – | 1300 | IC50 [4]: 255 nM

The next lines start with results.

inhibition [1] [%] | Ki [2] [nM] | SMILES | also measured
– | 600 | CCOC(=O)c1c(NC(=O)Cc2ccccc2)sc2c1CCN(C(=O)OCC)C2 | IC50 [4]: 186 nM
70 | – | O=C(NCCc1c[nH]c2ccc(OCc3ccccc3)cc12)c1ccco1 | –
60 | – | CC(NC(=O)OCc1ccccc1)C(=O)Oc1cc(O)c2c(=O)cc(-c3ccccc3)oc2c1 (stereo unspecified) | –
65 | – | Cc1ccc(N(CC(=O)N/N=C/c2ccccc2O)S(=O)(=O)c2ccccc2)cc1 | –
